From patent publication US11491232B2, “Lactuloside compounds and preparation and use thereof” (Fruithy Holdings Limited, priority 2017, dated 2022)
Read-outs that look alike come from different tables or passages of the source.

How the values were obtained:
[1] = rat, in vivo; for Concentration of prednisolone in the content, The first half segment of Small intestine / Concentration of prednisolone in the content, The last half segment of Small intestine: male, Sprague-Dawley (SD)
Procedure: (§2) For the experiment animals of Group 1, Group 2 and Group 3, at each time point of 30 min, 1 h, 2 h, 3 h, 4 h, 5 h, 6 h, 8 h, and 10 h after the administration, 4 animals were randomly selected and sacrificed. The blood samples were collected, and the contents in the stomach and various segments of the intestine tract (the first half segment of the small intestine, the last half segment of the small intestine, the first third segment of the colon (including cecum), and the last two thirds segment of the colon) were weighed. […] 4 animals of Group 4 were sacrificed at the time point of 10 h. The blood samples and the contents in various segments of the gastrointestinal tract were collected as blank control.

[2] = Systemic pharmacokinetics (plasma) after oral administration to SD rats; format: in vivo
Procedure: as §2

colon flora = experiment: Stability in the presence of colon flora (content in colon of rat); format: in vitro ADME, SD rat; settings: male, Sprague-Dawley (SD), rat, 1 h, pH 6.8
Procedure: A phosphate buffer solution with a pH of 7.0 was formulated, and then CO2 was introduced to the solution to adjust the pH to 6.8. Then, the content in colon of a male SD rat (body weight: 180-220 g) was placed in a water bath at 37° C., and added into the phosphate buffer solution with a pH of 6.8 as prepared above under the protection of N2 to a concentration of 20% (w/v). The buffer solution was kept in an oxygen-free environment. Then, the test Compound 17 was added to the buffer solution, and the solution was stirred uniformly.
Supernatant was analyzed with HPLC, where the amount of each ingredient was calculated by normalization.
Note: in the above table, “T14.148 (%)” represents the percentage of peak area of the material with a retention time of 14.148 min “T14.713 (%)” represents the percentage of peak area of the material with a retention time of 14.713 min. “T16.392 (%)” represents the percentage of peak area of the material with a retention time of 16.392 min. “T22.624 (%)” represents the percentage of peak area of the material with a retention time of 22.624 min.
(§1) Other typical example compounds were tested for stability according to the above method, and the test results are shown in Table 8 below.

[3] = Test on stability in mediums in vitro (buffer solutions with different pH, simulated intestinal fluid, simulated gastric fluid); format: physicochemical
Procedure: At 37° C., Compound 17 was incubated in different mediums (buffer solutions with different pH, a simulated intestinal fluid containing pancreatin, and simulated gastric fluid containing pepsin).
as §1

[4] = test system: ulcerative colitis models of Wistar rat induced by enema with trinitrobenzenesulfonic acid (TNBS); experiment: Pharmacodynamic effect of intragastric administration in ulcerative colitis models of Wistar rat induced by TNBS enema; format: in vivo; settings: Wistar rats; for colon coefficient on Day 8 after modeling compared with the model control group / histopathological score of colon on Day 8 after modeling compared with the model control group / body weight change (increase) on Day 8 after modeling as compared to the model group: intragastric qd × 7, Compound 1 1.91 mg/kg; for colon coefficient on Day 8 after modeling compared with the model control group: prednisolone 1 mg/kg (FIG. 6); for histopathological score of colon on Day 8 after modeling compared with the model control group: prednisolone 1 mg/kg (FIG. 7); for body weight change (increase) on Day 8 after modeling as compared to the model group: prednisolone 1 mg/kg, only Compound 1 vs model significant (FIG. 5)
Procedure: Comparison research among therapeutic effects of Compound 1 and a commercial formulation of prednisolone (prednisolone tablet, produced by Wuhan Yuancheng Co-Creation Technology Co., Ltd.) on ulcerative colitis models of Wistar rats after intragastric administration was carried out to further evaluate the improvement in main therapeutic effect indexes of the intragastric perfusion therapy of Compound 1 and compare it with that of treatment group with equivalent moles of a commercial formulation of prednisolone, thereby providing pharmacodynamic support for further development of Compound 1.
According to the experiment, 40 male Wistar rats (180-220 grams) were purchased, and randomly divided into four groups (i.e., physiological saline control group, model control group, prednisolone group and Compound 1 group), and there were 10 animals in each group. Except the physiological saline control group, ulcerative colitis animal models were produced by once enema administration of a mixed solution of 2.5% TNBS-50% ethanol (containing 80 mg/kg TNBS) to experiment animals in other three groups in an amount of 3.2 ml/kg. For the physiological control group, physiological saline was once administered by enema in an amount of 3.2 ml/kg. At 24 h after the modeling administration, the corresponding solvent control or therapeutic drugs were administered by enema depending on animal groups (qd×7d (one dose per day, for 7 days)), and detailed grouping and administration information is as shown in Table 14 below.
During the investigation, the main indexes to be observed include: death of animals, clinical observation, body weight, colon coefficient, histopathological examination of animals, and so on. For each experiment group, on Day 8 after modeling, animals were sacrificed. Colon tissues were collected to calculate the colon coefficient (colon coefficient=colon weight (g)/animal body weight (g) * 100%).

[5] = intragastric administration, FIG. 3
[6] = Simulated intestinal fluid (containing pancreatin) (pH 6.8) (8 h)

Compound: C[C@]12C=CC(=O)C=C1CC[C@@H]1[C@@H]2[C@@H](O)C[C@@]2(C)[C@H]1CC[C@]2(O)C(=O)COC1(CO)O[C@H](CO)[C@@H](O[C@@H]2O[C@H](CO)[C@H](O)[C@H](O)[C@H]2O)[C@@H]1O (stereo partly drawn) [Compound 1, (11β)-11,17-dihydroxyl-21-{[4-O-(β-D-galactopyranosyl)-D-fructofuranosyl]oxy}pregna-1,4-diene-3,20-dione]
- passage through the gastrointestinal tract of a mammal (absorption and hydrolysis) [1]: without being absorbed significantly by the gastrointestinal tract and hydrolyzed significantly by endogenous enzymes of a mammal host
- factor of increase of maximum concentrations (Cmax) of local prednisolone in the cecum and colon sites as compared to prednisolone group ([1]; po): 65-360
- total exposure (AUC) of local prednisolone in the cecum and colon sites compared with prednisolone group ([1]; po): much higher than the prednisolone (original form) group
- plasma prednisolone Cmax as compared to free prednisolone group [2, 5]: very low
- plasma prednisolone time to peak as compared to free prednisolone group [2, 5]: significantly delayed
- concentration at 0.5 h ([2]; male, Sprague-Dawley, rat, plasma, oral, 9.55 mg/kg intragastric, 0.5 h (only time point with detection), read-out: concentration of Compound 1 in the rat plasma): 10.4 ng/mL
- Percentage of the example compound remaining (Composition, %) (colon flora): 22.1%
- Percentage of the released active drug (prednisolone, dexamethasone, budesonide, apremilast or prucalopride) (Composition, %) (colon flora): 39.7%
- Percentage of the example compound remaining (Composition, %) [3, 6]: 99.0%
- Percentage of the released active drug (prednisolone, dexamethasone, budesonide, apremilast or prucalopride) (Composition, %) [3, 6]: 0.2%
- Percentage of the example compound remaining (Composition, %) ([3]; Water (pH 1.2) (2 h)): 30.4%
- Percentage of the released active drug (prednisolone, dexamethasone, budesonide, apremilast or prucalopride) (Composition, %) ([3]; Water (pH 1.2) (2 h)): 67.2%
- day after modeling on which the body weight began to rise ([4]; TNBS model, intragastric qd × 7, 1.91 mg/kg): 4 days
- colon coefficient on Day 8 after modeling compared with the model control group [4]: significantly lower than that for the model control group (p<0.05)
- histopathological score of colon on Day 8 after modeling compared with the model control group [4]: significantly lower than that for the model control group (p<0.05)
- body weight change (increase) on Day 8 after modeling as compared to the model group [4]: statistically significant

Compound: C[C@]12C=CC(=O)C=C1CC[C@@H]1[C@@H]2[C@@H](O)C[C@@]2(C)[C@H]1CC[C@]2(O)C(=O)CO [Prednisolone, prednisolone]
- Concentration of prednisolone in the content, The first half segment of Small intestine ([1]; 0.5 h): 16.66 ± 2.89 nmol/g
- Concentration of prednisolone in the content, The last half segment of Small intestine ([1]; 0.5 h): 16.27 ± 3.34 nmol/g
- Concentration of prednisolone in the content, The first half segment of Small intestine ([1]; 1 h): 19.20 ± 3.44 nmol/g
- Concentration of prednisolone in the content, The last half segment of Small intestine ([1]; 2 h): 19.81 ± 2.77 nmol/g
- Concentration of prednisolone in the content, The first half segment of Small intestine ([1]; 3 h): 21.16 ± 2.18 nmol/g
- Concentration of prednisolone in the content, The last half segment of Small intestine ([1]; 3 h): 20.47 ± 3.08 nmol/g
- Concentration of prednisolone in the content, The first half segment of Small intestine ([1]; 4 h): 17.38 ± 3.04 nmol/g
- Concentration of prednisolone in the content, The last half segment of Small intestine ([1]; 4 h): 13.27 ± 2.09 nmol/g
- Concentration of prednisolone in the content, The first half segment of Small intestine ([1]; 5 h): 7.34 ± 1.38 nmol/g
- Concentration of prednisolone in the content, The last half segment of Small intestine ([1]; 5 h): 6.94 ± 1.35 nmol/g
- Concentration of prednisolone in the content, The first half segment of Small intestine ([1]; 6 h): 0.36 ± 0.05 nmol/g
- Concentration of prednisolone in the content, The last half segment of Small intestine ([1]; 6 h): 0.32 ± 0.06 nmol/g
- Concentration of prednisolone in the content, The last half segment of Small intestine ([1]; 8 h): 0.04 ± 0.01 nmol/g
- Cmax value of prednisolone in the content, Stomach ([1]; po, 5 mg/kg): 370.53 nmol/g
- Cmax value of prednisolone in the content, The first half segment of Small intestine ([1]; po, 5 mg/kg): 51.92 nmol/g
- Cmax value of prednisolone in the content, The first third segment (including cecum) of Colon ([1]; po, 5 mg/kg): 0.70 nmol/g
- Cmax value of prednisolone in the content, The last half segment of Small intestine ([1]; po, 5 mg/kg): 22.05 nmol/g
- Cmax value of prednisolone in the content, The last two thirds segment of Colon ([1]; po, 5 mg/kg): 0.14 nmol/g
- colon coefficient on Day 8 after modeling compared with the model control group [4]: not statistically significant
- histopathological score of colon on Day 8 after modeling compared with the model control group [4]: not statistically significant
- body weight change (increase) on Day 8 after modeling as compared to the model group [4]: higher than that for the model group
